Q: For `COc1cc(Nc2nccc(-c3ccccc3)n2)cc(OC)c1OC`, which melting point is on record?
A: 187 °C

Q: For `O=C1Nc2cccc(-c3cccc4c3oc3ccccc34)c2C12COc1cc3c(cc12)OCO3` (centres undefined), which melting point is on record?
A: > 230 °C

Q: With `COc1ccc(C(=O)C(C(=O)Nc2cc(N)ccc2Cl)N2C(=O)c3ccccc3C2=O)cc1` (centres undefined) as the compound, how does the melting point read?
A: 105 to 107 °C

Q: For `CCCCOC(=O)C(C)Oc1ccc(COc2ccc(Cl)cc2)cc1` (centres undefined), which melting point is on record?
A: 66 °C

Q: With `CN(c1ccc2sccc2c1)c1nc(=O)c2cccnc2s1` as the compound, how does the melting point read?
A: 214 to 216 °C

Q: For `CCN(CC)c1ccc(C(=O)C#Cc2ccncc2)cc1`, which melting point is on record?
A: 85 to 87 °C

Q: For `COC(=O)c1cc(Cl)cc(N)c1O`, which melting point is on record?
A: 65 to 67 °C

Q: With `CC1COC(c2ccccc2)(c2ccc(Cl)nc2)O1` (centres undefined) as the compound, how does the melting point read?
A: 44 to 51 °C

Q: With `Oc1ncn(-c2ccccc2)n1` as the compound, how does the melting point read?
A: 281 to 282 °C

Q: With `CNC(=O)CC1CN=C(c2cc3cc(Oc4ccc(S(C)(=O)=O)nc4)cc(OC(C)COC)c3[nH]2)S1` (centres undefined) as the compound, how does the melting point read?
A: 107 to 109 °C

Q: For `CC(C)(C)OC(=O)N[C@H]1CCN(c2nc3c(cc2F)c(=O)c(C(=O)O)cn3C2CC2)C1`, which melting point is on record?
A: 247 to 249 °C

Q: For `COc1ccc(C(=O)c2ccc3nc(Cl)nc(-c4cccc(Cl)c4)c3c2)cc1`, which melting point is on record?
A: 164 °C

Q: For `COC(=O)C(OC)(OC)C(=O)Nc1ccc(Br)cc1C`, which melting point is on record?
A: 99 to 103 °C

Q: With `CC(C)C(NC(=O)[C@@H]1CCCN1C(=O)[C@@H](NC(=O)c1ccc(C(=O)N2CCOCC2)nc1)C(C)C)C(=O)C(F)(F)C(F)(F)F` (some centres undefined) as the compound, how does the melting point read?
A: 111 to 112 °C

Q: For `NC(CC(=O)O)c1ccc2c(c1)OCO2` (centres undefined), which melting point is on record?
A: 223 to 224 °C

Q: For `Cc1ccc(N[C@H](Cc2c[nH]c3ccccc23)C(=O)O)cc1`, which melting point is on record?
A: 146 to 148 °C

Q: With `CCCOCCOc1ccc(-c2ccc3c(c2)C=C(C(=O)Nc2ccc(CN(C)C4CCOCC4)cc2)CCS3(=O)=O)cc1Cl` as the compound, how does the melting point read?
A: 183 to 184 °C

Q: For `N#CC(C#N)=CCOCCc1ccccc1`, which melting point is on record?
A: 135 to 136 °C

Q: For `CC(C)(C)c1cc(CCC(=O)Nc2ccc(S(=O)(=O)NCCBr)cc2)cc(C(C)(C)C)c1O`, which melting point is on record?
A: 153 to 155 °C

Q: For `COc1cc2ncc(C#N)c(Nc3ccc(Sc4nccn4C)c(Cl)c3)c2cc1OC`, which melting point is on record?
A: 302 to 307 °C

Q: Which melting point does the source give for `CCOC(=O)c1sc(NC(=O)c2cc(Br)ccc2O)nc1-c1ccccc1` here?
A: 197 to 199 °C

Q: For `CC(=O)OC1C(C)OC(Oc2nc[nH]c2C(N)=O)C(OC(C)=O)C1OC(C)=O` (centres undefined), which melting point is on record?
A: 184 to 186 °C

Q: Which melting point does the source give for `CCN(CC)C(=S)NC1C=C2c3cccc4c3c(cn4CC)CC2N(C)C1` (centres undefined) here?
A: 108 °C

Q: With `O=C(NN1CCCC1)C(CS)Cc1ccccc1` (centres undefined) as the compound, how does the melting point read?
A: 93 °C

Q: With `CCCCCCOc1ccc(-n2c(-c3ccc(Br)cc3)ccc2-c2ccc(Br)cc2)cc1` as the compound, how does the melting point read?
A: 201 to 202 °C

Q: With `O=C(O)CCCCN1C(=O)NC(=O)C1(c1ccccc1)c1ccccc1` as the compound, how does the melting point read?
A: 207 °C

Q: With `CCOC(=O)C1CCN(C(=O)OC)CC1=O` (centres undefined) as the compound, how does the melting point read?
A: 36 to 38 °C

Q: With `CCCCCCCCSc1cc(SCCCCCCCC)c2ccc3c(SCCCCCCCC)cc(SCCCCCCCC)c4ccc1c2c43` as the compound, how does the melting point read?
A: 110 °C

Q: With `COC(=O)c1ccc(NCC=Cc2ccccc2)cn1` as the compound, how does the melting point read?
A: 131 to 133 °C

Q: Which melting point does the source give for `Cc1c2c(nc3ccccc13)CCN(S(=O)(=O)c1ccc(Cl)cc1)CC2` here?
A: 189 °C

Q: For `CCCCCCCCC(C)C(=O)NCl` (centres undefined), which melting point is on record?
A: 56 to 57 °C

Q: With `c1ccc(C[C@@H]2CN(C3=Nc4ccccc4Sc4ccccc43)CCN2)cc1` as the compound, how does the melting point read?
A: 56 to 69 °C

Q: With `CCOC(=O)Cc1c(C(=O)OCC)c(O)c(C(=O)c2ccc(Cl)cc2)n1C` as the compound, how does the melting point read?
A: 145 to 147 °C

Q: For `CSc1[nH]cc(Cc2ccccc2)c1[N+](=O)[O-]`, which melting point is on record?
A: 190 to 192 °C

Q: With `O=S(=O)(CCCCl)Nc1cccc(OCc2ccc3ccccc3n2)c1` as the compound, how does the melting point read?
A: 116 to 117 °C

Q: Which melting point does the source give for `N#Cc1cc(Cl)ccc1NC(=O)C(F)(F)F` here?
A: 105 to 107 °C

Q: For `O=C(N1CC2CCC(C1)O2)C12CC3CC(CC(C3)C1)C2`, which melting point is on record?
A: 134 to 136 °C

Q: Which melting point does the source give for `COc1cccc(CNC(=O)C(C)(C)COc2cccc3nc(C)c(C(=O)O)c(N)c23)c1` here?
A: 172 to 174 °C

Q: For `O=C1CC(N2C=Nc3cc(Cl)cc(Cl)c3C2)C(=O)N1` (centres undefined), which melting point is on record?
A: 215 to 217 °C

Q: For `CNc1nc(Nc2ccc(Cl)c(Cl)c2)ncc1NC(=O)c1ccccc1`, which melting point is on record?
A: 265 to 267 °C

Q: With `Nc1ccc2c(c1)OCC(=S)N2` as the compound, how does the melting point read?
A: 205 to 211 °C

Q: Which melting point does the source give for `CNC(=O)c1cc(=O)c2ccccc2o1` here?
A: 224 to 225 °C

Q: With `CC(C)CC(=O)OC1COC(OC(=O)CC(C)C)CO1` (centres undefined) as the compound, how does the melting point read?
A: 104 to 105 °C

Q: For `O=C1C(Br)=C(Br)C(=O)c2c(F)cccc21`, which melting point is on record?
A: 100 °C

Q: For `Cc1cc2c(cc1C(=O)c1ccccc1Cl)OC(C(=O)O)O2` (centres undefined), which melting point is on record?
A: 133 to 135 °C

Q: With `CCCCCCSC(=O)CS(=O)(=O)Nc1c(C(C)C)cccc1C(C)C` as the compound, how does the melting point read?
A: 81 to 83 °C

Q: With `COc1cc(C(=O)NC=NC(=O)ON(c2ccc(C)c(NC(=O)c3ccc(OCc4ccccc4)cc3)c2)C(C)(C)C)cc(OC)c1OC` as the compound, how does the melting point read?
A: 94 °C

Q: For `CC(C)(C)OC(=O)N1CCN(C(=O)/C=C/c2ccc(Sc3ccc4c(c3)OCCO4)c([N+](=O)[O-])c2)CC1`, which melting point is on record?
A: 165 to 167 °C

Q: With `CCOC(=O)c1cn(C2CC2)c2nc(N3CCCC(n4ccnn4)C3)c(F)cc2c1=O` (centres undefined) as the compound, how does the melting point read?
A: 205 to 206 °C
